Test results taken from patent publication US12433838B2, “Liposomal formulation of bacterial lipopolysaccharide combined with a cytotoxic agent, and use thereof in anti-tumour therapy” (priority 2017, dated 2025).

What was measured:
[1] = test system: SaOS cells; assay: Apoptosis of SaOS spheroids with Lipo-LPS-activated THP-1 macrophages and/or etoposide (IncuCyte Caspase-3/7); assay type: cell-based, rat; conditions: 5 μM etoposide or macrophages stimulated 16 h with 100 ng/mL Lipo-LPS, fluorescence arbitrary units, FIG. 6
Excerpt: The SaOS cells are […] osteosarcoma cells. This is a malignant bone tumour. These cells can be cultured according to a 3D spheroid model adapted to tumour cells.
THP-1 are human monocytic cells derived from an acute monocytic leukemia.
To perform cellular death monitoring of these SaOS cells, the fluorescent product IncuCyte® Caspase-3/7 has been used to evaluate the number of apoptosis cells.
The results are shown in FIG. 6, in fluorescence arbitrary units.

[2] = test system: RL lymphoma cells (CD20+ human B lymphoma cells); assay: Tumour growth monitoring in RL cells xenografted mice; assay type: in vivo, Scid CB17 mice; conditions: 46 days after the tumour graft; 30 mg/kg, one injection per week; FIG. 1
Excerpt: During this experiment, six groups of Scid CB17 mice have been used. Each group is comprised at six mice.
Group 1=control (no treatment)

| Molecule | Apoptosis rate of SaOS cells with respect to the control [1] | Apoptosis rate of SaOS cells with respect to the control ([1]; listed as epotoside) | Tumour volume relative to control mice [2] |
| --- | --- | --- | --- |
| COc1cc([C@@H]2c3cc4c(cc3[C@@H](O[C@@H]3O[C@@H]5CO[C@@H](C)O[C@H]5[C@H](O)[C@H]3O)[C@H]3COC(=O)[C@H]23)OCO4)cc(OC)c1O [etoposide] | induces cancer cell apoptosis | significantly increased with respect to the control | – |
| rituximab | – | – | twice lower |
